According to the NIST ThermoML archive (doi:10.1016/j.jct.2015.04.030):
Numbers after ± are expanded uncertainties.

Test: excess molar enthalpy (molar enthalpy of mixing); xn = mol fraction of the nth substance listed
Settings: 100 kPa, Liquid, Calvet calorimetry

CN(C)CCN(C)CCN(C)C [N,N,N',N'',N''-pentamethyldiethylenetriamine] + O
excess molar enthalpy [kcal/mol]
Settings	303.15 K	323.15 K
x1 = 0.0486	-0.641 ± 0.0139	–
x1 = 0.0506	–	-0.561 ± 0.0122
x1 = 0.099	-0.948 ± 0.0203	–
x1 = 0.1024	–	-0.825 ± 0.0177
x1 = 0.15	-1.03 ± 0.022	-0.908 ± 0.0194
x1 = 0.2	–	-0.951 ± 0.0203
x1 = 0.2072	-1.08 ± 0.0229	–
x1 = 0.2492	-1.05 ± 0.0225	–
x1 = 0.25	–	-0.927 ± 0.0198
x1 = 0.3	-1 ± 0.0213	–
x1 = 0.3062	–	-0.869 ± 0.0186
x1 = 0.4001	–	-0.77 ± 0.0165
x1 = 0.4063	-0.841 ± 0.0179	–
x1 = 0.4895	-0.727 ± 0.0155	–
x1 = 0.5005	–	-0.618 ± 0.0131
x1 = 0.6001	–	-0.478 ± 0.0103
x1 = 0.6117	-0.538 ± 0.0115	–

NCCNCCO [N-(2-aminoethyl)ethanolamine] + O
303.15 K
Settings	excess molar enthalpy [kcal/mol]
x1 = 0.1031	-0.554 ± 0.012
x1 = 0.202	-0.863 ± 0.0184
x1 = 0.3019	-0.963 ± 0.0206
x1 = 0.3567	-0.995 ± 0.0213
x1 = 0.4023	-0.957 ± 0.0203
x1 = 0.4991	-0.88 ± 0.0186
x1 = 0.5997	-0.74 ± 0.0158
x1 = 0.7027	-0.579 ± 0.0124

NCCCNCCCN [bis(3-aminopropyl)amine] + O
excess molar enthalpy [kcal/mol]
Settings	303.15 K	323.15 K
x1 = 0.0507	–	-0.581 ± 0.0129
x1 = 0.0508	-0.621 ± 0.0136	–
x1 = 0.1064	–	-1.05 ± 0.0225
x1 = 0.1065	-1.11 ± 0.0237	–
x1 = 0.1991	–	-1.43 ± 0.0311
x1 = 0.1993	-1.52 ± 0.0335	–
x1 = 0.3005	-1.57 ± 0.0335	-1.48 ± 0.0311
x1 = 0.4049	-1.47 ± 0.0311	–
x1 = 0.4057	–	-1.34 ± 0.0287
x1 = 0.4998	-1.33 ± 0.0287	–
x1 = 0.5003	–	-1.21 ± 0.0263
x1 = 0.602	-1.09 ± 0.0234	–
x1 = 0.6022	–	-0.916 ± 0.0196
x1 = 0.6842	-0.83 ± 0.0177	-0.744 ± 0.0158
x1 = 0.8014	–	-0.463 ± 0.01
x1 = 0.8015	-0.534 ± 0.0115	–

NCCNCCN [di(2-aminoethyl)amine] + O
Settings	excess molar enthalpy [kcal/mol]
303.15 K, x1 = 0.0509	-0.542 ± 0.0122
303.15 K, x1 = 0.1001	-0.981 ± 0.021
303.15 K, x1 = 0.1544	-1.33 ± 0.0287
303.15 K, x1 = 0.1962	-1.48 ± 0.0311
303.15 K, x1 = 0.2416	-1.56 ± 0.0335
303.15 K, x1 = 0.3018	-1.59 ± 0.0335
303.15 K, x1 = 0.4026	-1.52 ± 0.0335
303.15 K, x1 = 0.501	-1.29 ± 0.0287
303.15 K, x1 = 0.6025	-1.05 ± 0.0225
303.15 K, x1 = 0.702	-0.811 ± 0.0172
303.15 K, x1 = 0.7984	-0.57 ± 0.0122
323.15 K, x1 = 0.0503	-0.504 ± 0.0112
323.15 K, x1 = 0.0989	-0.911 ± 0.0196
323.15 K, x1 = 0.2028	-1.41 ± 0.0287
323.15 K, x1 = 0.3003	-1.51 ± 0.0311
323.15 K, x1 = 0.4044	-1.38 ± 0.0287
323.15 K, x1 = 0.51	-1.21 ± 0.0263
323.15 K, x1 = 0.6027	-0.938 ± 0.0201
323.15 K, x1 = 0.7018	-0.762 ± 0.0163
323.15 K, x1 = 0.7983	-0.512 ± 0.011

OCCNCCO [diethanolamine] + O
298.15 K
Settings	excess molar enthalpy [kcal/mol]
x1 = 0.05035	-0.13 ± 0.00311
x1 = 0.1001	-0.266 ± 0.00574
x1 = 0.1989	-0.41 ± 0.00884
x1 = 0.2023	-0.415 ± 0.00884
x1 = 0.2958	-0.484 ± 0.0103
x1 = 0.3428	-0.494 ± 0.0105
x1 = 0.3974	-0.491 ± 0.0105
x1 = 0.4915	-0.465 ± 0.01
x1 = 0.599	-0.38 ± 0.00813
x1 = 0.7038	-0.304 ± 0.00645
x1 = 0.795	-0.223 ± 0.00478
x1 = 0.9029	-0.0989 ± 0.00215

OCCN(CCO)CCO [triethanolamine] + O
Settings	excess molar enthalpy [kcal/mol]
303.15 K, x1 = 0.0473	-0.128 ± 0.00287
303.15 K, x1 = 0.1013	-0.222 ± 0.00478
303.15 K, x1 = 0.2063	-0.308 ± 0.00669
303.15 K, x1 = 0.3064	-0.334 ± 0.00717
303.15 K, x1 = 0.3548	-0.335 ± 0.00717
303.15 K, x1 = 0.4076	-0.327 ± 0.00693
303.15 K, x1 = 0.4902	-0.292 ± 0.00621
303.15 K, x1 = 0.5783	-0.267 ± 0.00574
303.15 K, x1 = 0.71	-0.201 ± 0.0043
303.15 K, x1 = 0.7943	-0.145 ± 0.00311
303.15 K, x1 = 0.8959	-0.0758 ± 0.00167
323.15 K, x1 = 0.0487	-0.119 ± 0.00263
323.15 K, x1 = 0.1001	-0.207 ± 0.00454
323.15 K, x1 = 0.2028	-0.288 ± 0.00621
323.15 K, x1 = 0.3033	-0.317 ± 0.00669
323.15 K, x1 = 0.3502	-0.322 ± 0.00693
323.15 K, x1 = 0.4	-0.319 ± 0.00693
323.15 K, x1 = 0.5021	-0.279 ± 0.00598
323.15 K, x1 = 0.6021	-0.249 ± 0.00526
323.15 K, x1 = 0.6989	-0.198 ± 0.0043
323.15 K, x1 = 0.8006	-0.14 ± 0.00311
323.15 K, x1 = 0.9009	-0.0679 ± 0.00143
